Patent EP0995757A2, “Bivalent inhibitors of the proteasome” (Max-Planck-Gesellschaft zur Förderung der Wissenschaften …, priority 1998, dated 2000)
Where a SMILES comes first, the peptide text is derived from it.

What was measured:
yeast proteasome β2/β2' [1] = biological target: T1, yeast proteasome β2/β2' (Saccharomyces cerevisiae, UniProt P25043); assay: Proteasome assay, trypsin-like activity (fluorogenic substrate Bz-Phe-Val-Arg-AMC); assay type: biochemical, Saccharomyces cerivisiae; set-up: from tissue; host or cells: Saccharomyces cerevisiae (natural complex from yeast; I conclude this from 'proteasome from'); conditions: for IC50: trypsin-like activity, Bz-Phe-Val-Arg-AMC 8 µM, inhibitor incubated 1 h at 37°C, Tris-buffer pH 7.5; for increase in binding affinity: compared to the monovalent inhibitors 1, 2, 3 and 5, β2/β2'
Description: (§1) A solution of proteasome from Saccharomyces cerivisiae in Tris-buffer (pH 7.5; 450 µl; 6.67 nM for PGPH, 5.56 nM for trypsin-like and 1.11 nM for chymotrypsin-like activity) was incubated with the inhibitors at varying concentrations ([…]) for 1 h at 37°C. The fluorogenic substrates for PGPH (Z-Leu-Leu-Glu-βNA, 40 µM), trypsin-like (Bz-Phe-Val-Arg-AMC, 8 µM) and chymotrypsin-like assays (Suc-Leu-Leu-Val-Tyr-AMC, 8 µM) were dissolved in the same Tris-buffer with a minimum amount of DMSO and added to the enzyme solution at 37 °C to reach a final volume of 500 µl. Fluorescence excitation/emission wavelengths were 360 nm/460 nm for AMC and 335 nm/410 nm for βNA. The rates of hydrolysis were monitored by the fluorescence increase and the initial linear portions of curves (100-300 sec) were used to calculate the IC50 values.

yeast proteasome β1/β1' [2] = biological target: T2, yeast proteasome β1/β1' (Saccharomyces cerevisiae, UniProt P38624); assay: Proteasome assay, PGPH activity (fluorogenic substrate Z-Leu-Leu-Glu-βNA); assay type: biochemical, Saccharomyces cerivisiae; set-up: Three of the seven different β-type subunits are processed at the N-terminal nucleophile, the threonine-1 residue; from tissue; host or cells: Saccharomyces cerevisiae (natural complex from yeast; I conclude this from 'proteasome from'); conditions: Z-Leu-Leu-Glu-βNA 40 µM, inhibitor incubated 1 h at 37°C, Tris-buffer pH 7.5
Description: as §1

yeast proteasome β5/β5' [3] = biological target: T3, yeast proteasome β5/β5' (Saccharomyces cerevisiae, UniProt P30656); assay: Proteasome assay, chymotrypsin-like activity (fluorogenic substrate Suc-Leu-Leu-Val-Tyr-AMC); assay type: biochemical, Saccharomyces cerivisiae; set-up: from tissue; host or cells: Saccharomyces cerevisiae (natural complex from yeast; I conclude this from 'proteasome from'); conditions: for IC50: chymotrypsin-like activity, Suc-Leu-Leu-Val-Tyr-AMC 8 µM, inhibitor incubated 1 h at 37°C, Tris-buffer pH 7.5; for increase in binding affinity: compared to the monovalent inhibitors 1, 2, 3 and 5, β5/β5'
Description: as §1

yeast 20S proteasome = biological target: T4, yeast 20S proteasome (Saccharomyces cerevisiae, UniProt P25043+P30656+P38624); assay: X-ray structure analysis of proteasome/inhibitor complexes (crystal soaking); set-up: species or system S. cerivisiae; conditions: crystals soaked with 5 mM inhibitor for 12h, no competing substrate
T4 construct: Three of the seven different β-type subunits are processed at the N-terminal nucleophile, the threonine-1 residue; from tissue; host or cells: Saccharomyces cerevisiae (natural 20S complex)
Description: Crystals of […] proteasomes from S. cerivisiae were grown in hanging drops at 24 °C as described previously (Groll et al., Nature 386, 463-471, 1997). The protein concentration used for crystallization was 40 mg/ml in 10 mM Tris-HCl (pH 7.5) and 1 mM EDTA. The drops contained 4 µl protein and 2 µl reservoir solution with 30 mM magnesium acetate, 100 mM morpholino-ethane-sulphonic acid (pH 6.5) and 11 % MPD. The inhibitors were soaked with a final concentration of 5 mM for 12h. Data were collected using synchrotron radiation with λ = 1.1 Å on the BW6-beamline at the DESY-Centre/Hamburg/Germany (Table 1). Crystals were soaked in a cryoprotecting buffer (30% MPD, 28 mM magnesium acetate, 100 mM morpholino-ethane-sulfonic acid (pH 6.9) and frozen in a stream of cold nitrogen gas at 90 K (Oxford Cryo Systems). X-ray intensities were evaluated by using the MOSFILM program package (version 5.3) and data reduction was performed with CCP4. The anisotropy of diffraction was corrected by an overall anisotropic temperature factor by comparing observed and calculated structure amplitudes using X-PLOR (Brunger, A. (1992) X-PLOR: A System for X-Ray Crystallography and NMR, version 3.1; Yale University Press, New Haven, CT). Electron density was averaged 10 times over the 2-fold non crystallographic symmetry axis using MAIN (Turk, D., Ph. D. Thesis, Technical University, Munich, 1992). […]

yeast proteasome β1/β1' [4] = biological target: T2, yeast proteasome β1/β1'; assay: Proteasome assay, PGPH activity (fluorogenic substrate Z-Leu-Leu-Glu-βNA); assay type: biochemical; set-up: Three of the seven different β-type subunits are processed at the N-terminal nucleophile, the threonine-1 residue; endogenous in cells; host or cells: Saccharomyces cerevisiae; conditions: Z-Leu-Leu-Glu-βNA 40 µM, inhibitor incubated 1 h at 37°C, Tris-buffer pH 7.5
Description: as §1

yeast proteasome β5/β5' [5] = biological target: T3, yeast proteasome β5/β5'; assay: Proteasome assay, chymotrypsin-like activity (fluorogenic substrate Suc-Leu-Leu-Val-Tyr-AMC); assay type: biochemical; set-up: endogenous in cells; host or cells: Saccharomyces cerevisiae; conditions: Suc-Leu-Leu-Val-Tyr-AMC 8 µM, inhibitor incubated 1 h at 37°C, Tris-buffer pH 7.5
Description: as §1

yeast proteasome β2/β2' [6] = biological target: T1, yeast proteasome β2/β2'; assay: Proteasome assay, trypsin-like activity (fluorogenic substrate Bz-Phe-Val-Arg-AMC); assay type: biochemical; set-up: endogenous in cells; host or cells: Saccharomyces cerevisiae; conditions: Bz-Phe-Val-Arg-AMC 8 µM, inhibitor incubated 1 h at 37°C, Tris-buffer pH 7.5
Description: as §1

Compound	IC50 (yeast proteasome β2/β2' [1]) [µM]	IC50 (yeast proteasome β1/β1' [2]) [µM]	IC50 (yeast proteasome β5/β5' [3]) [µM]	active sites occupied by the inhibitory head group in the X-ray structure (yeast 20S proteasome)	increase in binding affinity (yeast proteasome β2/β2' [1])	increased activity (yeast proteasome β2/β2' [1]; homobivalent versus related monovalent inhibitors, tryptic activity β2/β2') [fold]	increase in binding affinity (yeast proteasome β5/β5' [3])	increased activity (yeast proteasome β5/β5' [3]; homobivalent versus related monovalent inhibitors, chymotryptic activity β5/β5') [fold]	IC50 (yeast proteasome β1/β1' [4]) [µM]	IC50 (yeast proteasome β5/β5' [5]) [µM]	IC50 (yeast proteasome β2/β2' [6]) [µM]
HOOC-(CH2)2-CO-NH-(PEG)19-25-NH-CO-(CH2)2-CO-Arg-Val-Arg-H [compound 5]	8.2	> 100	> 100	–	–	–	–	–	–	–	–
(PEG)19-25-[NH-CO-(CH2)2-CO-Arg- Val-Arg-H]2 [compound 6]	0.071	> 100	> 100	only in the two β2 and β2' active sites	about two orders of magnitude	100	–	–	–	–	–
(PEG)19-25-[NH- CO- (CH2)2- CO-Leu-Leu-Nle-H]2 [compound 4]	> 100	> 100	0.017	occupies all six active sites	–	–	about two orders of magnitude	100	–	–	–
HOOC-(CH2)2-CO-NH-(PEG)19-25-NH-(CH2)2-CO-Leu-Leu-Nle-H [compound 3]	> 100	> 100	1.8	–	–	–	–	–	–	–	–
CC(=O)N[C@@H](CCCNC(=N)N)C(=O)N[C@H](C(=O)N[C@H](C=O)CCCNC(=N)N)C(C)C [compound 2, Ac-Arg-Val-Arg-H] (Ac-Arg-Val-Arg-aldehyde)	–	–	–	–	–	–	–	–	> 100	> 100	6.4
(PEG)19-25-[NH-CO-(CH2)2-CO-Arg-Val-Arg-H][NH-CO-(CH2)2-CO-Leu-Leu-Nle-H] [compound 7]	0.097	> 100	0.031	–	about two orders of magnitude	–	about two orders of magnitude	–	–	–	–
